Laboratory results reported in US20260069693A1, “UROLITHINS AND T-CELL MEDIATED IMMUNE RESPONSE” (priority 2022, published 2026).

System: Splenic murine T cells
Test: aCD3/aCD28 stimulation of murine T cells in presence of UA, flow cytometry
Format: cell-based
Conditions: UA 50 μM + ICG001 10 μM, 48 h
Method: Mitochondrial remodelling has been previously associated with alterations in T cell fate (Buck et al., 2016; Yu et al., 2020b). Given the observed dependency of the UA effect on CD8^+ T cells, the inventors wondered whether UA may also directly affect T cell fate commitment. Purified T cells from FVB mice were stimulated with aCD3/aCD28 beads to induce T cell differentiation into effector T cell subsets in the presence or absence of UA for up to 72 hours (FIG. 2A). […] Previously, a rare naïve-like subset of T cells with enhanced stemness capabilities, termed T memory stem cells (TSCM) has been identified (Gattinoni et al., 2009). TSCM are marked by extreme longevity, their ability to self-renew, and potential for immune reconstitution (Gattinoni et al., 2017) which translates into potent anti-tumor immunity. Phenotypically, TSCM represent a subset of minimally differentiated T cells, which share a CD44^loCD62L^hi phenotype with naïve T cells, but are phenotypically distinct by expressing high levels of Sca1 (Gattinoni et al., 2009). […] This was associated with reduced cyclin D1 expression (not shown), in line with previous observations that link TSCM reprogramming to halted proliferation (Gattinoni et al., 2009; Verma et al., 2021).
Splenic murine T cells were isolated from mice aged 6-20 weeks by negative selection with EasySep mouse T cell isolation kit (Stem cell) according to the manufacturer's instructions. To monitor T cell proliferation, purified T cells were loaded with CellTrace Violet (C34557 ThermoFisher Scientific). T cell activation was initiated using αCD3/CD28 activation beads (11456D; ThermoFisher Scientific) at a ratio of 25 μl dynabeads per 0.5×10^6 T-cells. Cells were activated with 25-50 μM Urolithin A (Tocris) or DMSO in T cell activation Medium (RPMI (ThermoFisher Scientific) 10% FBS (South America origin), 10 mM Hepes (Sigma), 1× Non-Essential Amino Acid, 1 mM Sodium Pyruvate, 50 μM B-Mercaptoethanol, 100 U/ml penicillin, 100 μg/ml streptomycin and 2 mM Glutamax (ThermoFisher Scientific) for the indicated durations. In selected experiments, cells were stimulated in the presence of inhibitors, namely TCF1i (ICG-001; SelleckChem; 10 μM) and PGC-1αi (SR-18292, Sigma-Aldrich; 10 μm,). For subsequent analysis, activating beads were magnetically removed prior antibody staining. For human T cells, peripheral blood mononuclear cells were purified with a Ficoll-Paque (GE healthcare) gradient. T cells were enriched with EasySep Human T Cell Isolation Kit (StemCell) and activated with dynabead Human T-Activator CD3/CD28 for T Cell Expansion and Activation Kit (11131D; ThermoFisher Scientific), similar to murine T cell stimulation. […]
For flow cytometric analysis of mitochondria and lysosomes 500 μl of Mitotracker Red (200 nM; ThermoFisher) or Lysotracker Red DND-99 (75 nM; ThermoFisher) were applied followed by surface staining. To study changes in mitochondrial membrane potential, Mitoprobe TMRM kit (ThermoFisher) was used according to the manufacturer's instructions. Cell proliferation was assessed by CellTrace Violet (Invitrogen, C34557) at a concentration of 5 μM according to manufacturer's instructions. For human samples, cells were stained as described above with Fixable Viability Dye-eF780, αCD95-BV421 (DX2; 562616), αCD62L-PE (DREG-56; 555544), αCCR7-AF700 (150503; 561143), αCD45RO-APC (UCHL; 559865), αCD45RA-FITC (HI100; 555488), αCD8-PE-CF594 (RPA-T8; 562282) and αCD4-BV786 (OKT4; 566806) from BD.

O=C1[C@H](Cc2ccc(O)cc2)N2C(=O)CCN(C(=O)NCc3ccccc3)[C@H]2CN1Cc1cccc2ccccc12 [ICG001, reference compound]
UA-induced TSCM formation in vitro under TCF-1 block: abrogated
